≈ marks a conversion by molar mass, not a printed value. Like-named read-outs stand apart in the source and are kept apart here.
How the values were obtained:
[1] = tested on: Leishmania amazonensis promastigotes; test: In vitro leishmanicidal activity against promastigotes (optical density, 72 h); type: cell-based; conditions: read-out: Leishmanicidal activity L.a., IC50
Experimental: (§1) Leishmanicidal activity was assayed according to Williams, with some modification. Promastigotes of Leishmania: L. amazonensis, Clone 1, NHOM-BR-76-LTB-012 (Lma, donated by the Paul Sabatier Université, France) and L. braziliensis M2904 C192 RJA (M2904, donated by Dr. Jorge Arévalo from Universidad Peruana Cayetano Heredia, Peru). The strains were cultured in Schneider’s insect medium (pH 6.2), supplemented with 10% FBS and incubated in 96-microwell plates at 26 °C. Briefly, promastigotes in logarithmic phase of growth, at concentration of 106 parasites/mL, were exposed to samples dissolved in DMSO (1%) at different concentrations (3.1–100 μg/mL). Miltefosine (3.1–100 μg/mL, IDPS, France) was used as control drug. The microwell plates were incubated for 72 h at 26 °C, the optical density of each well was measured and the IC50 values calculated. All assays were performed in triplicate.

[2] = tested on: L. braziliensis promastigotes; test: as above; type: cell-based; conditions: Leishmania braziliensis, read-out: Leishmanicidal activity L.b, IC50
Experimental: as §1

[3] = Cytotoxicity in Raw 264.7 murine macrophage cell cultures (resazurin, 72 h); type: cell-based; conditions: mouse, Raw 264.7 murine macrophages, 72 h at 37 °C, 6.2–200 μg/mL, triplicate
Experimental: The Raw 264.7 murine macrophage cell line was purchased from the American-Type Culture Collection (ATCC-TIB71). The cells were maintained in DMEM-HG medium supplemented with 10% fetal bovine serum, 100 U/mL of penicillin and 100 μg/mL of streptomycin, and sodium bicarbonate (2.2 g/L) in humidified atmosphere at 37 °C with 5% CO2. Samples were prepared as described above and added (in 100 μL DMSO) at different concentrations (6.2–200 μg/mL). Medium blank, control drugs and cell growth controls were included to evaluate cell viability. The plates were incubated for 72 h at 37 °C with 5% CO2. After incubation for the indicated time, the cells were washed, after which 10 μL of Resazurin reagent (2.0 mM) was added. They were further incubated at 37 °C for 3 h in a humidified incubator. The IC50 values were assessed using a fluorometric reader (540 nm excitation, 590 nm emission) and Gen5 software. All assays were performed in triplicate.

SMILES | melting point | IC50 ([1]; 72 h) | IC50 ([2]; 72 h) | IC50 at 72 h [3] | IC50 at 72 h ([3]; Raw 264.7 macrophage cells) | IC50 ([1]; L. amazonensis Clone 1 NHOM-BR-76-LTB-012 promastigotes, 72 h at 26 °C, 3.1–100 μg/mL, triplicate) | IC50 ([2]; L. braziliensis M2904 C192 RJA promastigotes, 72 h at 26 °C, 3.1–100 μg/mL, triplicate)
COC(=O)CC1C(C)(C)OC(=O)C=C2OC3(C)C45C(=O)CC(c6ccoc6)C4(C)C(OC(C)=O)C(O)C35C21C (stereo not shown) [Compound 1, Trichilianone A] | 181 °C | > 100 µg/mL | > 100 µg/mL | 64 ± 23 µg/mL (≈ 118 µM) | – | – | –
COC(=O)CC1C(C)(C)OC(=O)CC2OC3(C)C45C(=O)CC(c6ccoc6)C4(C)C(OC(C)=O)C(O)C35C21C (stereo not shown) [Compound 2, Trichilianone B] | 145 °C | > 100 µg/mL | > 100 µg/mL | – | 75 ± 18 µg/mL (≈ 138 µM) | – | –
CCCCCCCCCCCCCCCCOP(=O)([O-])OCC[N+](C)(C)C [Miltefosine, reference compound] | – | – | – | – | 21 ± 2 µg/mL (≈ 51.5 µM) | 5 ± 0.2 µg/mL (≈ 12.3 µM) | 4.1 ± 0.5 µg/mL (≈ 10.1 µM)
COC(=O)CC1C(C)(C)OC(=O)C=C2OC3(C)C45C(=O)CC(C6=CCOC6=O)C4(C)C(OC(C)=O)C(O)C35C21C (stereo not shown) [Compound 4, Trichilianone D] | 175 °C | > 100 µg/mL | > 100 µg/mL | 76 ± 23 µg/mL (≈ 136 µM) | – | – | –
COC(=O)CC1C(C)(C)OC(=O)CC2OC3(C)C45C(=O)CC(c6ccoc6)C4(C)C(OC(C)=O)C(OC(=O)C(C)C)C35C21C (stereo not shown) [Compound 3, Trichilianone C] | 151 °C | > 100 µg/mL | > 100 µg/mL | – | 70 ± 27 µg/mL (≈ 114 µM) | – | –

From paper PMC7919047, “Trichilianones A-D, Novel Cyclopropane-Type Limonoids from Trichilia adolfi” (Molecules, 2021)
